Assay type in all cases: cell-based, Escherichia coli
One assay has as its system E. coli BW25113-ΔacrB. The assay can be described thus: AcrAB-TolC efflux deficiency screen, relative MIC. As to conditions: ΔacrB vs wild-type. The procedure:
(§1) Fig. 6 The impact of AcrAB-TolC activity on antibiotic susceptibility. E. coli strains with AcrAB-TolC depletion (BW25113-ΔacrB) and overexpression (BW25113: pUCacrAB) were treated with various antibiotics, and the level of resistance was determined as minimum inhibitory concentration (MIC) relative to a wild-type strain, presented on a logarithmic scale (log2). Each bar represents the mean resistance level (susceptibility, i.e., level of resistance < 0; and resistance, i.e., level of resistance > 0) to antibiotics induced by acrAB overexpression (blue bars; E. coli with a multicopy plasmid of the acrAB genes (pUCacrAB)) and acrB deletion (red bars; mutant E. coli with acrB gene deletion (ΔacrB)) compared to the wild-type. Data are presented as mean values of 3 biological replicates ± SD. […] Detailed information on antibiotic and bacterial strain abbreviations is provided in Supplementary Data 1. Source data are provided as a Source Data file. For information on mode of action groups, refer to Table 1.
(§2) For the efflux deficiency screen, the ΔacrB mutant of E. coli K12 BW25113[86] and its equivalent wild-type control strain with intact gene were utilized. In contrast, BW25113 carrying a multicopy acrAB plasmid (pUCacrAB)[87] and its control strain harboring an empty pUC118 plasmid were used to overexpress the acrAB efflux system. According to established protocols via P1 transduction, the suitable acrB deletion mutant (ΔacrB BW25113) was created, while the pUCacrAB plasmid was kindly provided by Kunihiko Nishino and Akihito Yamaguchi (Osaka University, Osaka, Japan). In a prior study, both strains were employed. Since the copy number of the plasmid carrying the efflux pump is controlled by native promoters, external induction is unnecessary.
(§3) Antibiotic susceptibilities of these strains were evaluated using a modified version of the standard broth dilution method. In 96-well microtiter plates containing fresh MHB medium, or supplemented MS medium in case of SCH79797, ten-step serial dilutions of an antibiotic from a stock solution were made (2 wells per antibiotic concentration per strain). The two wells contained only supplemented media without any antibiotics […]. Strains were incubated overnight at 37 °C with continuous agitation. Additionally, plasmid containing strains were grown in the presence of 100 µg/mL ampicillin. The culture was diluted to yield a cell suspension with 5 ×10^5 cells/mL and then inoculated into the wells of the microtiter plate. To determine the medium’s background OD value, the first column of the 96-well plate contained solely MHB without inoculum. Prior to the measurement, the plates were incubated at 37 °C with continuous shaking at 900 rpm with 3 mm throw. OD600 values were determined in a microplate reader after 18 hours of incubation (Biotek Synergy 2). The minimum inhibitory concentration (MIC) was determined as the lowest concentration of antibiotic at which the OD600 values were less than 0.05 after subtracting the background value. The log2 of the relative MIC was computed using the following equation:2 log2relativeMICpUCacrAB=MICpUCacrAB/MICpUC118 3 log2relativeMICΔacrB=MICΔacrB/MICwt

For assay [1], the system named is E. coli BW25113: pUCacrAB. The assay can be described thus: AcrAB-TolC efflux overexpression screen, relative MIC. The settings on record: pUCacrAB vs empty pUC118 control. The method, then: as §1, §2, §3
Assay [2] has as its system E. coli ATCC 25922 (SEN) and E. coli NCTC13846 (MDR). The assay can be described thus: Frequency-of-resistance (FoR) assay, relative MIC of mutants. The settings on record: for MIC: Escherichia coli. The method, then:
The susceptibility of antibiotics to resistance development was evaluated in two strains of each bacterial species: a multidrug-resistant strain and an antibiotic-sensitive strain of Escherichia coli, Klebsiella pneumoniae, Acinetobacter baumannii, and Pseudomonas aeruginosa. To explore first-step resistance, we previously used a standard protocol for spontaneous frequency-of-resistance analysis (FoR assay) at multiple concentrations of each antibiotic[10],[28],[31]–[33]. […] For all other combinations, approximately 10^10 bacterial cells were exposed to one of each antibiotic on agar plates for two days at concentrations where the given strain is susceptible. We examined resistance levels by contrasting the minimum inhibitory concentration (MICs) of the mutated strains to the original wild-type bacterial strain (i.e., relative MIC).
To estimate the frequency of spontaneous mutations that confer resistance in a microbial population, we conducted a frequency of resistance (FoR) assay following established protocols[10],[31]–[33]. […] Prior to plating, bacteria were grown overnight in MHB medium at 37 °C and 250 RPM, then centrifuged and washed in MHB. All experiments were performed in triplicate, and plates were incubated at 37 °C for 48 hours. Total colony-forming units (CFUs) were determined by plating appropriate dilutions onto antibiotic-free MHB agar. Resistance frequencies were calculated by dividing the number of resistant colonies by the initial viable cell count. From the plates with the highest antibiotic concentration, ten colonies were selected for MIC determination and whole-genome sequencing.
A robotic liquid handling system was used to automatically prepare a 11 to 16-step serial dilution in 384-well microtiter plates (Greiner). A final concentration of 5 × 10^5 bacterial cells per mL were inoculated into each well containing 60 µL MHB medium. Bacterial cultures were incubated at 37 °C with continuous shaking (Infors shaker, 900 rpm with 3 mm throw) for 18 hours (2 replicates from each). Cell growth was monitored by measuring the optical density (OD600 values, using Biotek Synergy microplate reader). MIC was defined as the antibiotic concentration of complete growth inhibition (i.e., OD600 < 0.05). Relative MIC was calculated as follows:1 relativeMIC=MICevolved/MICancestor […]
Supplementary Figure 3. Resistance levels following the frequency of resistance assay across bacterial strains. The level of resistance was measured as the fold change in relative MIC between evolved and ancestral strains. Data are grouped by bacterial strain (A. baumannii (AB), E. coli (EC), K. pneumoniae (KP), and P. aeruginosa (PA)) and categorized as either multidrug-resistant (MDR) or sensitive (SEN). Each data point represents a laboratory evolved line, and boxplots show the median, first and third quartiles, with whiskers indicating the 5th and 95th percentiles. […]
analysis was performed using two-sided Dunn’s post-hoc test with Benjamini-Hochberg correction for multiple comparisons (**/ * indicates p < 0.01/ 0.05). For detailed information on antibiotic and bacterial species, see Supplementary Table 1. For mode of action groups, refer to Table 1. Source data are provided as a Source Data file.

The mark [3] stands for this setting: Escherichia coli ATCC 25922 (EC-SEN), evolved line 1 versus ancestor.
[4] abbreviates: Escherichia coli ATCC 25922 (EC-SEN), evolved line 2 versus ancestor.
Setting [5] is: Escherichia coli ATCC 25922 (EC-SEN), evolved line 3 versus ancestor.
Where [6] appears, read: read-out: MIC of evolved line, Escherichia coli ATCC 25922 (EC-SEN), evolved line 1.
Setting [7] is: read-out: MIC of evolved line, Escherichia coli ATCC 25922 (EC-SEN), evolved line 2.
Where [8] appears, read: read-out: MIC of evolved line, Escherichia coli ATCC 25922 (EC-SEN), evolved line 3.

Where two headings read alike, the source gives them in different places. Where a SMILES comes first, the peptide text is derived from it. Bridges are numbered along the chain shown (N, C = ends). [ ]: non-standard residue; d: D form. The star is where a group is joined. X2 = CC[C@H](C)CCCCC(=O)*; Dab = NCC[C@H](N)C(=O)O

`CN[C@@H]1[C@@H](O[C@H]2O[C@H](CO)[C@@H](N)[C@H](O)[C@H]2O)OC2C[C@@H](N)[C@@H](O[C@H]3[C@H](O)[C@@H](O)[C@H](N)C[C@@H]3N)OC2[C@@H]1O` (stereo partly drawn) [Apramycin]: the “Relative MIC (log2)” value in the assay on E. coli BW25113-ΔacrB (replicate 1) is 1; with E. coli BW25113-ΔacrB (replicate 2), 1; with E. coli BW25113-ΔacrB (replicate 3), 1; in assay [1] (replicate 1) it was 0; in assay [1] (replicate 2), 0; in assay [1] (replicate 3), 0.

`Nc1nc(-n2cc(C(=O)O)c(=O)c3cc(F)c(N4CC(O)C4)c(Cl)c32)c(F)cc1F` [Delafloxacin]: the “Relative MIC (log2)” value with E. coli BW25113-ΔacrB (replicate 1) is listed as -4; in the assay with E. coli BW25113-ΔacrB (replicate 2) it was -4; in the assay with E. coli BW25113-ΔacrB (replicate 3), -4; in assay [1] (replicate 1), 2; in assay [1] (replicate 2) it was 2; in assay [1] (replicate 3), 2. Besides, the “Relative MIC” value in assay [2] (setting [3]), in assay [2] (setting [4]) and in assay [2] (setting [5]) was 1 in each case.

For `C[C@H]1c2cccc(O)c2C(=O)C2=C(O)[C@]3(O)C(=O)C(C(N)=O)=C(O)[C@@H](N(C)C)[C@@H]3[C@@H](O)[C@@H]21` [Doxycycline], the “Relative MIC (log2)” value is -2.34 in the assay with E. coli BW25113-ΔacrB (replicate 1); -2.34 with E. coli BW25113-ΔacrB (replicate 2); -2.34 in the assay with E. coli BW25113-ΔacrB (replicate 3); 0 in assay [1] (replicate 1); 0 in assay [1] (replicate 2); 0 in assay [1] (replicate 3). Further, the entries for the “Relative MIC” value in assay [2] (setting [3]), in assay [2] (setting [4]) and in assay [2] (setting [5]) were 2, 4 and 2, respectively. In addition, the MIC (commonly the lowest concentration that inhibits growth of the organism) is 2 mg/L in assay [2] (setting [6]), 4 mg/L in assay [2] (setting [7]) and 2 mg/L in assay [2] (setting [8]).

As for `CN(C)[C@@H]1C(O)=C(C(N)=O)C(=O)[C@@]2(O)C(O)=C3C(=O)c4c(O)c(NC(=O)CN5CCCC5)cc(F)c4C[C@H]3C[C@@H]12` [Eravacycline], the “Relative MIC (log2)” value with E. coli BW25113-ΔacrB (replicate 1) was -2.34; in the assay on E. coli BW25113-ΔacrB (replicate 2), -2.34; in the assay on E. coli BW25113-ΔacrB (replicate 3), -2.34; in assay [1] (replicate 1), 0; in assay [1] (replicate 2), 0; in assay [1] (replicate 3) it was 0. Also, the “Relative MIC” value stood at 2 in assay [2] (E. coli NCTC 13846 (EC-MDR), evolved line 1, evolved vs ancestor); 1 in assay [2] (E. coli NCTC 13846 (EC-MDR), evolved line 2, evolved vs ancestor); 2 in assay [2] (E. coli NCTC 13846 (EC-MDR), evolved line 3, evolved vs ancestor); 2 in assay [2] (setting [3]); 1 in assay [2] (setting [4]); 2 in assay [2] (setting [5]). The MIC in assay [2] (read-out: MIC of evolved line, E. coli NCTC 13846 (EC-MDR), evolved line 1) is 2 mg/L; in assay [2] (read-out: MIC of evolved line, E. coli NCTC 13846 (EC-MDR), evolved line 3), 2 mg/L; in assay [2] (setting [6]), 0.25 mg/L; in assay [2] (setting [7]), 0.125 mg/L; in assay [2] (setting [8]), 0.25 mg/L.

For the compound `C[C@@H](O)[C@H]1C(=O)N2C(C(=O)O)=C(S[C@@H]3CN[C@H](C(=O)N(C)C)C3)[C@H](C)[C@H]12` [Meropenem], the MIC came to 0.0156 mg/L in assay [2] (read-out: MIC of evolved line, E. coli NCTC 13846 (EC-MDR), evolved line 2); 0.0156 mg/L in assay [2] (setting [6]); 0.0156 mg/L in assay [2] (setting [7]); 0.0156 mg/L in assay [2] (setting [8]).

Consider `CC[C@H](C)CCCCC(=O)N[C@@H](CCN)C(=O)N[C@H](C(=O)N[C@@H](CCN)C(=O)N[C@H]1CCNC(=O)[C@H]([C@@H](C)O)NC(=O)[C@H](CCN)NC(=O)[C@H](CCN)NC(=O)[C@H](CC(C)C)NC(=O)[C@@H](Cc2ccccc2)NC(=O)[C@H](CCN)NC1=O)[C@@H](C)O` [Polymyxin B] (X2-[Dab]T[Dab][Dab][Dab][dF]L[Dab][Dab]T; lactam 4-C (inferred); N-terminus assumed), for which the “Relative MIC (log2)” value (in the assay with E. coli BW25113-ΔacrB (replicate 1); with E. coli BW25113-ΔacrB (replicate 2); with E. coli BW25113-ΔacrB (replicate 3); in assay [1] (replicate 1); in assay [1] (replicate 2); in assay [1] (replicate 3)) was 0 throughout.

As for Tridecaptin M152-P3, the MIC of evolved line in assay [2] (Escherichia coli ATCC 25922 (EC-SEN), evolved line 1) amounted to 4 mg/L; in assay [2] (Escherichia coli ATCC 25922 (EC-SEN), evolved line 2), 4 mg/L; in assay [2] (Escherichia coli ATCC 25922 (EC-SEN), evolved line 3), 4 mg/L.

For polymyxin-B, the MIC of evolved line in assay [2] (E. coli ATCC 25922 (EC-SEN), evolved line 1) came to 4 mg/L; in assay [2] (E. coli ATCC 25922 (EC-SEN), evolved line 2), 1 mg/L; in assay [2] (E. coli ATCC 25922 (EC-SEN), evolved line 3), 8 mg/L; in assay [2] (E. coli NCTC 13846 (EC-MDR), evolved line 1) it was 4 mg/L; in assay [2] (E. coli NCTC 13846 (EC-MDR), evolved line 2) it was 4 mg/L; in assay [2] (E. coli NCTC 13846 (EC-MDR), evolved line 3), 4 mg/L.
